The data set is described as follows: in vivo. Further details: species or system rats. The conditions noted are these: Sprague-Dawley, rat, po. How it is done: Actual levels of FDP were determined by monitoring absorbance of reduced nicotinamide adenine dinucleotide (NADH) and treating the sample with aldolase (EC 4.1.2.13, 45 units mg-1 diluted 1:27 with distilled water), the enzyme which cleaves FDP into dihydroxyacetone phosphate (DAP) and D-glyceraldehyde 3-phosphate (GAP). DAP and GAP are interconverted by the enzyme triosephosphate isomerase (TIM, EC 5.3.3.1, 5290 units mg-1 diluted 1:120 with distilled water). Glycerol-3-phosphate dehydrogenase (GDH, EC 1.1.1.8, 252 units mg-1 diluted 1:100 with distilled water) catalyzes the reduction of DAP by NADH. For the FDP measurements, 1.5 ml of tetraethyl ammonium buffer (TEA, 0.4 mol l-1, pH 7.6 with EDTA 40 mmol l-1) was added to 1 ml of the sample in a 4 ml cuvette. […] After 5 min the absorbance was read 3 times at 340 nm, each reading 3 min apart. The average of these readings is the initial absorbance (Ai). This step removes any DAP or GAP in the sample and determines the baseline absorbance. […] Nine minutes after addition of the aldolase, the final absorbance (Af) was determined by 3 readings at 340 nm, each 6 minutes apart. The concentration of FDP in the sample was proportional to the difference in the initial and final absorbance. […] Levels of FDP in blood were determined per ml, while levels in tissue samples were determined as a function of tissue weight. […]

On to `O=C(COP(=O)(O)O)[C@@H](O)[C@H](O)[C@H](O)COP(=O)(O)O` [F1,6BP, Fructose-1,6-bisphosphate], for which the concentration at 7 days is 22200 ± 3300 ng/mL. Also, the “FDP levels in the brain” value (7 days) stood at 0.50 ± 0.024 mg/g.

For the origin of these results see patent US20100197610A1, “FRUCTOSE 1, 6 BISPHOSPHATE - A NOVEL ANTICONVULSANT DRUG” (Baylor College of Medicine, priority 2007, published 2010).
